Reference: patent US20160040251A1, “BIOMARKERS FOR THE IDENTIFICATION OF CHEMOSENSITIVITY” (PHARMACYCLICS, LLC, priority 2013, published 2016)

What was measured:
[1] = tested on: patient-derived xenografts CRCM226X, CRCM392X, CRCM389X; experiment: Reimplantation of cells from treated PDXs into secondary mice (tumorigenicity); type: in vivo, NOD/SCID mice
Description: (§1) Six mice were injected for each PDX and for each group. After 1, 2 and 3 weeks of treatment, two mice from each group were sacrificed according to ethic statements. Tumors were dissociated and cells were analyzed for the ALDEFLUOR phenotype and tumorsphere formation capacity. Cells from 3-week treated mice were reimplanted into secondary NOD/SCID mice with injection of 1,000 cells for each treated tumor.
Tumor growth was compared with that of placebo-treated controls. An inhibition of the CRCM226X (Xist^low) PDX growth after abexinostat and docetaxel treatment was observed. […] After three weeks of treatment, the animals were sacrificed and the proportion of ALDEFLUOR-positive CSCs was measured in each residual tumor (FIG. 6B). All PDX models presented an increase in the ALDEFLUOR-positive population isolated from docetaxel-treated tumors compared to the untreated control. […] Tumorigenicity is directly related to the presence of CSCs and this assay gives an estimate of the proportion of residual tumorigenic CSCs. For each treatment condition (placebo, abexinostat, docetaxel), 1,000 cells isolated from treated-tumors were reimplanted.

[2] = tested on: patient-derived xenografts CRCM226X, CRCM392X, CRCM389X; experiment: Tumor growth of patient-derived xenografts under treatment; type: in vivo, NOD/SCID mice; conditions: abexinostat i.p. 12.5 mg/Kg twice a day 5 of 7 days, docetaxel 10 mg/kg weekly, three weeks
Description: To confirm the impact of abexinostat treatment on the CSC population from breast cancers with low XIST expression, three different patient-derived xenografts (PDXs) with distinct Xist expression level (CRCM226X, Xist^low; CRCM392X, Xist^med; CRCM389X, Xist^high) were utilized.
(§2) Animal models Cells from these PDXs were transplanted orthotopically into fat pads of NOD/SCID mice without cultivation in vitro. Single cancer cells (1,000,000 cells CRCM226X and CRCM389X, 125,000 cells CRCM392X) are injected into fat pads of NOD/SCID mice and tumor growth are monitored. When the tumor size was approximately 150 mm^3, treatment is started with abexinostat (i.p, 12.5 mg/Kg, twice a day, 5 out of 7 days for three weeks) or docetaxel (10 mg/kg weekly for three weeks) or placebo.
as §1

[3] = tested on: breast cancer cell lines (BCLs); experiment: MTS cell viability assay in breast cancer cell lines; type: cell-based, human; conditions: for IC50: Homo sapiens, 72 h treatment, MTS; for IC50 / drug-response profiles of BCLs (high- or low-dose sensitive) versus abexinostat profiles: 72 h; for drug-response profiles of BCLs (high- or low-dose sensitive) versus abexinostat profiles: other HDACi compounds
Description: A large series of cell lines (16 BCLs) were exposed to increasing concentrations (150 nM-2.5 μM) of the abexinostat, for 72 hours. These series represent all the molecular diversity observed in breast cancers.
Cell lines. A total of 16 breast cancer cell lines (BCLs) were used for the study. HCC1500, HCC1937, HCC1954, Hs 578T, MCF7, MDA-MB-134, MDA-MB-231, MDA-MB-361, MDA-MB-436, […] were obtained from American type culture collection (http://www.atcc.org/). SUM149 and SUM159 were obtained from Dr S.
Ethier's (Karmanos Cancer Center, Detroit, Mich., USA). S68 was obtained from Dr V. Castros (University de Rennes, France) and Br-Ca-MZ-01 from Dr V. Möbus (University of Ulm, Germany). All BCLs tested were derived from carcinomas. BCLs were grown using the recommended culture conditions (Neve et al, Cancer Cell 2006).
Drugs. BCLs were continuously treated for 72h in adherent conditions with Histone Deacetylase Inhibitors (HDACi): abexinostat, SAHA and valproic acid. For experiments abexinostat was prepared in a 23,1 mM stock solution, SAHA in a 0.5M stock solution, in Dimethyl Sulfoxide (DMSO) and stored at −20° C. Valproic acid was prepared in a 1M stock solution in Phosphate Buffered Saline (PBS) and stored at 4° C. For experiments, cells were treated with respective IC50s. DMSO or PBS were used as vehicle control (C<0.1%).
Cell viability. Inhibitory Concentrations 50 (IC50s) were evaluated using 3-(4,5-dimethylthiazol-2-yl)-5-(3-carboxymethoxyphenyl)-2-(4-sulfophenyl)-2H-tetrazolium (MTS) assay. BCLs were plated in adherent condition in 96-well plates at 5,000 cells per well; except for SUM159 plated at 1,000 cells per well. After 24 h, treatment with serial dilutions of HDACi was started. The effect of treatment on cell viability was estimated after 72 h by addition of 100 μL MTS solution (5 mg/mL in PBS) in each well. Cells were then incubated for 1 h at 37° C. Absorbance was measured at 540 nm in a fluorescence plate reader.

[4] = tested on: ALDEFLUOR-positive CSC population of PDXs CRCM226X, CRCM392X, CRCM389X; experiment: ALDEFLUOR assay on residual PDX tumors; type: in vivo, NOD/SCID mice; conditions: after three weeks of treatment
Description: as §2, §1
ALDEFLUOR assay The ALDEFLUOR kit (Stem Cell Technologies) was used to isolate the population with high aldehyde dehydrogenase (ALDH) enzymatic activity using an LSR2 cytometer as previously described (Ginestier et al, Cell Stem Cell, 2007). For BCLs cultivated in adherent condition, ALDEFLUOR-positive populations were evaluated after 72-hour treatment with HDACi (IC50s) or vehicle. Primary human xenografts CRCM226X, CRCM389X and CRCM392X were harvested on the 3rd week of treatment with abexinostat, docetaxel or placebo, dissociated and stained for ALDEFLUOR analysis. To eliminate cells of mouse origin from the xenotransplanted tumors, staining with an anti-H2K^d biotin antibody (1/200; BD Biosciences) followed by staining with a secondary antibody labeled with streptavidin e450 (1/200; eBioscience) was used.

[5] = CRCM226X (Xist low), 1,000 cells from 3-week treated tumors reimplanted
[6] = CRCM389X (Xist high), 1,000 cells from 3-week treated tumors reimplanted
[7] = CRCM392X (Xist med), 1,000 cells from 3-week treated tumors reimplanted

IC50 ([3]; nine BCLs sensitive to low-dose) [nM] | IC50 ([3]; seven BCLs sensitive to high-dose) [nM] | SMILES | tumor regrowth after reimplantation versus placebo-treated [1, 5] | tumor regrowth after reimplantation versus placebo-treated [1, 6] | tumor regrowth after reimplantation versus placebo-treated [1, 7] | PDX tumor growth versus placebo ([2]; CRCM226X (Xist low)) | PDX tumor growth versus placebo ([2]; CRCM389X (Xist high)) | PDX tumor growth versus placebo ([2]; CRCM392X (Xist med)) | ALDEFLUOR-positive population versus untreated control ([4]; CRCM226X (Xist low)) | ALDEFLUOR-positive population versus untreated control ([4]; CRCM389X (Xist high)) | ALDEFLUOR-positive population versus untreated control ([4]; CRCM392X (Xist med)) | drug-response profiles of BCLs (high- or low-dose sensitive) versus abexinostat profiles [3] | drug-response profile compared to abexinostat profile ([3]; conventional chemotherapeutic agent, BCLs)
170 to 460 | > 700 | CN(C)Cc1c(C(=O)NCCOc2ccc(C(=O)NO)cc2)oc2ccccc12 [abexinostat] | incapacity to regenerate a tumor | higher regrowth kinetic | delay in tumor regrowth | inhibition | no or discrete effect | no or discrete effect | two-fold decrease | increase | two-fold decrease |  | 
 |  | O=C(CCCCCCC(=O)Nc1ccccc1)NO [SAHA, vorinostat] |  |  |  |  |  |  |  |  |  | confirmed | 
 |  | CC(=O)O[C@@]12CO[C@@H]1C[C@H](O)[C@@]1(C)C(=O)[C@H](O)C3=C(C)[C@@H](OC(=O)[C@H](O)[C@@H](NC(=O)OC(C)(C)C)c4ccccc4)C[C@@](O)([C@@H](OC(=O)c4ccccc4)[C@H]21)C3(C)C [docetaxel] | tumor regrowth comparable to placebo-treated tumors | tumor regrowth comparable to placebo-treated tumors | tumor regrowth comparable to placebo-treated tumors | inhibition | no or discrete effect | no or discrete effect | increase | increase | increase |  | totally distinct
 |  | CCCC(CCC)C(=O)O [Valproic Acid, valproic acid] |  |  |  |  |  |  |  |  |  | confirmed | 
